Data on five compounds can be found in patent US9868726B2, “Pyridyl benzothiophenes as kinase inhibitors” (Allergan, Inc., priority 2014, dated 2018).

The target in experiment [1] is PDGFRβ (cytoplasmic domain PDGFR-b protein) (Homo sapiens (Human), UniProt P09619). Kind of experiment: PDGFRβ Kinase Assay (biochemical, ELISA). The following applies: 36 μM ATP; read-out: PDGFRβ Enzyme Assay (IC50 nM).
The target of experiment [2] is VEGFR2 (cytoplasmic domain KDR protein) (Homo sapiens (Human), UniProt P35968). As to the kind of experiment: VEGFR2 Kinase Assay (biochemical KDR kinase assay, ELISA). The settings on record: read-out: VEGFR2 Enzyme Assay (IC50 nM); 2.7 μM ATP.
VEGFR2 (cytoplasmic domain KDR protein), sequence (P35968 786-1356): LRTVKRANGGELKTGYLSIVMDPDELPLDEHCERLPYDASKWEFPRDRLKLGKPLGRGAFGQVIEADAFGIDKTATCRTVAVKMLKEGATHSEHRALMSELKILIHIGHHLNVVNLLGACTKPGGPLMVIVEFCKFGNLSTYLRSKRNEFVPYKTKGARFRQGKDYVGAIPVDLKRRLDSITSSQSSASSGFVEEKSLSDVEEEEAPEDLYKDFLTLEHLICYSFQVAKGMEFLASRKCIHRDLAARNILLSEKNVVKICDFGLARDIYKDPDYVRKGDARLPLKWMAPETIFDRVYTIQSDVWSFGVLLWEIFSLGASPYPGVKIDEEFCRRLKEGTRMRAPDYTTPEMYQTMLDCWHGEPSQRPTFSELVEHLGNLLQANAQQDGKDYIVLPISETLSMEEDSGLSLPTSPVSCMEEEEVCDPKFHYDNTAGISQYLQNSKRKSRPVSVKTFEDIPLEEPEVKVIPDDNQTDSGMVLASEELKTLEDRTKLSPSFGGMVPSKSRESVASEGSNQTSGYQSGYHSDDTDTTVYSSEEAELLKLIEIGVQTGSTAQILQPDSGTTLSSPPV
For experiment [3], the target named is recombinant human GST-PKR (Homo sapiens (Human), UniProt P19525). Kind of experiment: PKR KinaseGlo Assay. The format is biochemical. The following applies: 6.6 uM ATP; read-out: PKR KINASEGLO Enzyme Assay IC50. The method, then:
Commercially available recombinant human GST-PKR (SignalChem, Canada; 1.5 uM-2 uM stock) is diluted to 500 nM in assay buffer (20 mM Tris-HCl, pH 7.2, 10 mM KCl, 10 mM MgCl2, 10% glycerol). Preactivated PKR is dispensed to 384/96-well black plates at 3.125/12.5 uls/well using the liquid handler Janus. Appropriate dilutions of inhibitors are added to 384/96-well plate followed by 6.6 uM ATP (final) and incubated for 10 minutes at room temperature. The remaining ATP/well is determined by adding 6.25/25 uls/well Kinase-Glo assay mix (Promega) and luminescence is measured on EnVision luminescence plate reader (integration time, 0.2 sec; Perkin-Elmer, Massachusetts, USA). […] IC50 values are determined by plotting % activity versus inhibitor concentration. Curves are fitted using Activity base XLfit (IDBS, UK) using the formula— 4 Parameter Logistic Model fit=(A+((B−A)/(1+(10^((C−x)*D))))) inv=(C−(log(((B−A)/(y−A))−1)/D)) res=(y−fit)

The target of another experiment is VEGFR2 (Homo sapiens (Human), UniProt P35968). Kind of experiment: VEGFR2 Cellular Assay (FLIPR, VEGF induced intracellular calcium in HUVEC).
VEGFR2, sequence (P35968 20-1356): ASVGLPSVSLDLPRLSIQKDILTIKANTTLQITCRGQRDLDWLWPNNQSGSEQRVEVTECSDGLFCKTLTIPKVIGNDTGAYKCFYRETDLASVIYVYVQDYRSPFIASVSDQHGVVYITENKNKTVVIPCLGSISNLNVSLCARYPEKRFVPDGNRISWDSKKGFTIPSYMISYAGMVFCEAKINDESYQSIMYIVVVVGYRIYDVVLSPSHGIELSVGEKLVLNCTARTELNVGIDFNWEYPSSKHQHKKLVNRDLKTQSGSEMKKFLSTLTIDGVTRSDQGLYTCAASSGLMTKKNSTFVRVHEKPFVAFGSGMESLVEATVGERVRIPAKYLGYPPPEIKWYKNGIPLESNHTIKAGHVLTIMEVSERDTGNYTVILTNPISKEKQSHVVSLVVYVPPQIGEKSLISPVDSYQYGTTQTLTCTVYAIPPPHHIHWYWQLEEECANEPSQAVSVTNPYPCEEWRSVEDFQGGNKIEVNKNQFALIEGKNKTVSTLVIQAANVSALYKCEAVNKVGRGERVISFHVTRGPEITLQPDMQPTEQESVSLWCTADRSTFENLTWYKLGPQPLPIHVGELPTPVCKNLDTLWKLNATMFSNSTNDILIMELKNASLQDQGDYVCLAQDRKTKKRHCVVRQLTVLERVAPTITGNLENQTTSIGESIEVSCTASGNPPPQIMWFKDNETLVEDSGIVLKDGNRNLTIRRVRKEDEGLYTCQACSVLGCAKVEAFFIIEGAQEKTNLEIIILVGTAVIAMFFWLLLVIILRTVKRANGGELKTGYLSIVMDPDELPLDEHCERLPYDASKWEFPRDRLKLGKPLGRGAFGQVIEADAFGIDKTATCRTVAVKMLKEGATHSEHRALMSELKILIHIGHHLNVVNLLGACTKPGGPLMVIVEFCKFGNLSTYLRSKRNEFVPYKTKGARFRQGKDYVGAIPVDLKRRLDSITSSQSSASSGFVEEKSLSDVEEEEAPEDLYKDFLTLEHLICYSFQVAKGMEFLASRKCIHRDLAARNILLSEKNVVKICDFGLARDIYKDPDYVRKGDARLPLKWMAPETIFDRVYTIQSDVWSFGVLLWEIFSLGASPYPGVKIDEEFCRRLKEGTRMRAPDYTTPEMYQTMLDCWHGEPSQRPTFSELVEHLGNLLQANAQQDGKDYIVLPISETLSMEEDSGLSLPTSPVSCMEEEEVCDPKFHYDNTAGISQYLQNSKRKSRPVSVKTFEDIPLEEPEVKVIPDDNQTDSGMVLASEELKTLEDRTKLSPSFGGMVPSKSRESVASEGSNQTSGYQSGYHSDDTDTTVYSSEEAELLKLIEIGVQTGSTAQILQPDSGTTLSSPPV
The target of another experiment is PDGFRβ (Homo sapiens (Human), UniProt P09619). As to the kind of experiment: PDGFRβ Cellular Assay (FLIPR, PDGF-induced intracellular calcium in NHDF-Ad).
PDGFRβ, sequence (P09619 33-1106): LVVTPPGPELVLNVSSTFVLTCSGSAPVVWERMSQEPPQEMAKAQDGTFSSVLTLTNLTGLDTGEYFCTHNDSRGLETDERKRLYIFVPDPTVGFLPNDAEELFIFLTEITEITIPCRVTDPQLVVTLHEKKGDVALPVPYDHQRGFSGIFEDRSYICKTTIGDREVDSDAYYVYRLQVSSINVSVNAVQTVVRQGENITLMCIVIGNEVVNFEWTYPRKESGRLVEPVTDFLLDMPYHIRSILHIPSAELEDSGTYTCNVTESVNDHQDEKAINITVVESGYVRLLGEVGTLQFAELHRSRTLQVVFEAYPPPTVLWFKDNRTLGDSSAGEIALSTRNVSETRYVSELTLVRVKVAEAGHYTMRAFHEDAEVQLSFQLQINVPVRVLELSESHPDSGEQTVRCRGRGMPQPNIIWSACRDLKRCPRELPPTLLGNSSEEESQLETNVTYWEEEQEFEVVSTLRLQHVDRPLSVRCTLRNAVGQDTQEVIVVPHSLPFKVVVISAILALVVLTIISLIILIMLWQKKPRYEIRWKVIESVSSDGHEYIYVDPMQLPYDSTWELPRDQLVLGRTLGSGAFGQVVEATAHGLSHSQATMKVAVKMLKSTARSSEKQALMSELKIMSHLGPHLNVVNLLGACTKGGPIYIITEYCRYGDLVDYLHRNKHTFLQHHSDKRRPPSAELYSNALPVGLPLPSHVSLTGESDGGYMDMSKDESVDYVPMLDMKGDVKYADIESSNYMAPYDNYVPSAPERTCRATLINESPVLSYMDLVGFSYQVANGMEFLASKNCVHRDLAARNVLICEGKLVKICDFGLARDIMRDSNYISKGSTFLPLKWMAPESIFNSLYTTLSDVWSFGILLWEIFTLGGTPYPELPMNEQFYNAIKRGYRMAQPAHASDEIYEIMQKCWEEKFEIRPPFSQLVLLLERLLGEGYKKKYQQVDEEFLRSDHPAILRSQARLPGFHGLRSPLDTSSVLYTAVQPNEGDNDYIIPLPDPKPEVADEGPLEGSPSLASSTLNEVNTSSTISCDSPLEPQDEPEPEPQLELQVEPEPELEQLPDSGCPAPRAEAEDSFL

recombinant human GST-PKR, sequence (P19525 whole entry): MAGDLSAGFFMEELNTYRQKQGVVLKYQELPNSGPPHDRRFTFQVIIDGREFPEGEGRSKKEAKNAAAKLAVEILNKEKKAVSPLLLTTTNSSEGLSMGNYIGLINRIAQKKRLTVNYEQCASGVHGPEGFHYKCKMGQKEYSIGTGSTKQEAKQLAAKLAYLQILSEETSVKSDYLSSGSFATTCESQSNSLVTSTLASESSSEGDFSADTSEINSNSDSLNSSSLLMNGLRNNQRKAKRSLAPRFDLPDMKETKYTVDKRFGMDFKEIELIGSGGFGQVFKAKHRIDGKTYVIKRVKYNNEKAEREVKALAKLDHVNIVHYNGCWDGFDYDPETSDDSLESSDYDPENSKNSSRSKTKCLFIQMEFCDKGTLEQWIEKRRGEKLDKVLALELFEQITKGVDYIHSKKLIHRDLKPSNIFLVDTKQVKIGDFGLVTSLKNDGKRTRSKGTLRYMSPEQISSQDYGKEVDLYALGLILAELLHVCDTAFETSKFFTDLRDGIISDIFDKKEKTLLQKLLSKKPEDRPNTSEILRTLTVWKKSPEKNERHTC
PDGFRβ (cytoplasmic domain PDGFR-b protein), sequence (P09619 554-1106): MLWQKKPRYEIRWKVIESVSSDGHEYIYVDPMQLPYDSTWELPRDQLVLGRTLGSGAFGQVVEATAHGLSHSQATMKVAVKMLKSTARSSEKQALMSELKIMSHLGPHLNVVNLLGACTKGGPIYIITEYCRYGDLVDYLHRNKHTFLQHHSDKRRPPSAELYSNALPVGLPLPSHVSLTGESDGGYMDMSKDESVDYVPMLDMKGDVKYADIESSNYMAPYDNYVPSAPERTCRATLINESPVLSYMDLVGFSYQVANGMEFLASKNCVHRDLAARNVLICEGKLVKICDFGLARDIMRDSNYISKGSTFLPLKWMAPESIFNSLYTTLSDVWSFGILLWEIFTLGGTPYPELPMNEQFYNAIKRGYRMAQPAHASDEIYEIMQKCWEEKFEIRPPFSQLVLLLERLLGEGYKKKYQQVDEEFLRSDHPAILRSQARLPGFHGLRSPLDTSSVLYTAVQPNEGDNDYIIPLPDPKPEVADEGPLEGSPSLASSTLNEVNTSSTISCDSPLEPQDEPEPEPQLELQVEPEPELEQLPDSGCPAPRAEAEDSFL

Regarding `CS(C)(=O)=NC(=O)c1cnc(N)c(-c2cc3cc(NC(=O)Nc4ccc(Cl)c(C(F)(F)F)c4)ccc3s2)c1` [Example 5, 6-amino-5-{5-[({[4-chloro-3-(trifluoromethyl)phenyl]amino}carbonyl)amino]-1-benzothien-2-yl}-N-[dimethyl(oxido)-λ^4-sulfanylidene]nicotinamide], the IC50 is 21 nM in experiment [1], 6 nM in experiment [2], 69 nM in experiment [3] and 11 nM on VEGFR2.

Turning to `CS(C)(=O)=NC(=O)c1cnc(N)c(-c2cc3cc(NC(=O)Nc4cc(C(F)(F)F)ccc4F)ccc3s2)c1` [Example 6, 6-amino-N-[dimethyl(oxido)-λ^4-sulfanylidene]-5-{5-[({[2-fluoro-5-(trifluoromethyl)phenyl]amino}carbonyl)amino]-1-benzothien-2-yl}nicotinamide], the IC50 in experiment [1] is 27 nM; in experiment [2], 6 nM; in experiment [3], 167 nM; on VEGFR2 it was 5 nM.

Take `CS(C)(=O)=NC(=O)c1cncc(-c2cc3cc(NC(=O)Nc4cc(C(F)(F)F)ccc4F)ccc3s2)c1` [Example 57, N-[dimethyl(oxido)-λ^4-sulfanylidene]-5-{5-[({[2-fluoro-5-(trifluoromethyl)phenyl]amino}carbonyl)amino]-1-benzothien-2-yl}nicotinamide]: the IC50 is 7 nM in experiment [2] and 551 nM in experiment [3].

For the compound `CS(C)(=O)=NC(=O)c1cncc(-c2cc3cc(NC(=O)Nc4ccc(Cl)c(C(F)(F)F)c4)ccc3s2)c1` [Example 58, 5-{5-[({[4-chloro-3-(trifluoromethyl)phenyl]amino}carbonyl)amino]-1-benzothien-2-yl}-N-[dimethyl(oxido)-Δ^4-sulfanylidene]nicotinamide], the results for the IC50 in experiment [2] and in experiment [3] were 14 nM and 390 nM, respectively.

For `COP(=O)(OC)c1cnc(N)c(-c2ccc(NC(=O)Nc3cccc(C(F)(F)F)c3)cc2)c1` [Example 64, dimethyl (6-amino-5-(4-(3-(3-(trifluoromethyl)phenyl)ureido)phenyl)pyridin-3-yl)phosphonate], the IC50 on PDGFRβ amounted to 66 nM.
